Experiment [1] deals with dopaminergic neuronal terminals in the left striatum. Kind of experiment: [3H]-mazindol labelling of dopaminergic terminals in striatum after 6-OHDA lesion. Type of experiment: in vivo, rat. The following applies: FIG. 16B: BCL-ACP 3.75 and 0.25 mg/kg bid; L-DOPA 8 mg/kg with benserazide 12.5 mg/kg; vs non-treated 6-OHDA rats. Here is the method: (§1) Wistar rats (5 weeks) were used after an acclimatization period of at least 5 days. Surgery was performed under ketamine (50 mg/kg) and xylazine (10 mg/kg). Animals received an unilateral injection of 12 μg of 6-OHDA (sigma Aldrich) dissolved in 6 μl of 0.9% sterile NaCl containing 0.1% ascorbic acid (to protect 6-OHDA from oxidation), at the flow rate of 1 μl/min, in the left substantia nigra pars compacta. The stereotaxic coordinates of the injection site will be: anteroposterior+2.2 mm, lateral 2.0 mm, dorsoventral+3 mm with the incisor bar at +5.0 mm above the interaural plane, according to the rat stereotaxic atlas by De Groot (1959).
(§2) The first administration of treatment or vehicle has been performed the day before the stereotaxic injection of 6-OHDA (for the lesion groups) or vehicle and all along the 15 days preceding the behavioral tests. […] During the study and for each animal, the volume of per os administrations was determined on the basis of the mean body weight of the animals of the corresponding group. Body weights will be determined twice a week and the volume of administration will thus be adjusted consequently. […]
The loss of DA terminals in the striatum was assessed as an index of the extent of the dopaminergic denervation by analysis of [^3H]-mazindol binding to dopamine uptake sites. […]

The test system of experiment [2] is dopaminergic neuron cell bodies of subtantia nigra pars compacta. Put plainly: Quantification of TH positive neurons in substantia nigra after 6-OHDA lesion. Type of experiment: in vivo, rat. As to conditions: FIG. 16A: BCL-ACP 3.75 and 0.25 mg/kg bid; L-DOPA 8 mg/kg with benserazide 12.5 mg/kg; vs non-treated 6-OHDA rats. Here is the method:
as §1, §2
TH positive neurons were counted in a set of the three sections centered on the track of the 6-OHDA injection needle in the SN, covering almost all the SN. […] Cell counted is done using a microscope connected to a computer image analysis system by a CDD camera.

SMILES strings stand for the structures. Entries after “also recorded” stand apart in the source; their conditions may differ.

Regarding `N[C@@H](Cc1ccc(O)c(O)c1)C(=O)O` [L-DOPA, levodopa], in experiment [1], the “density of dopaminergic neuronal terminals in the left striatum (OD of [3H]-mazindol labelling)” value is recorded as “failed to inhibit; also recorded: not observed”. Further, in experiment [2], the “number of dopaminergic neurons in the left (intoxicated) part of SN” value was “failed to inhibit; also recorded: not observed”.

These data come from patent US9248111B2, “Therapeutic approaches for treating parkinson's disease” (PHARNEXT, priority 2011, dated 2016).
